Reference: PMC12287757, “Exploring the inhibitory effect and mechanism of 3,4,5-trihydroxybiphenyl on α-glucosidase: an integrated experimental and computational approach” (Frontiers in Pharmacology, 2025)

Biological target: α-glucosidase
Test: SPR (Biacore 8K, CM5 chip, immobilized enzyme); also p-NPG inhibition (IC50 […], Ki […], non-competitive, reversible) and CD
Format: binding, Saccharomyces cerevisiae

Work on Oc1cc(-c2ccccc2)cc(O)c1O [THB, 3,4,5-Trihydroxybiphenyl] yielded a Kd of 39.1 µM.
